Source: ChEMBL document CHEMBL1136244, “Synthesis and structure-activity relationships of 1-arylmethyl-3-(2-aminopropyl)-5-aryl-6-methyluracils as potent GnRH receptor antagonists” (Bioorg Med Chem Lett, 2003)

Tested on: not listed separately
Test: Inhibition of GnRH-stimulated [Ca2+] influx
Type: functional

IC50	SMILES
0.0025 µM	COc1cccc(-c2c(C)n(Cc3c(F)cccc3F)c(=O)n(C[C@@H](C)N(C)Cc3ccccn3)c2=O)c1

Molecular target: T1, Gonadotropin-releasing hormone receptor (Homo sapiens, UniProt P30968)
T1 sequence (P30968 whole entry): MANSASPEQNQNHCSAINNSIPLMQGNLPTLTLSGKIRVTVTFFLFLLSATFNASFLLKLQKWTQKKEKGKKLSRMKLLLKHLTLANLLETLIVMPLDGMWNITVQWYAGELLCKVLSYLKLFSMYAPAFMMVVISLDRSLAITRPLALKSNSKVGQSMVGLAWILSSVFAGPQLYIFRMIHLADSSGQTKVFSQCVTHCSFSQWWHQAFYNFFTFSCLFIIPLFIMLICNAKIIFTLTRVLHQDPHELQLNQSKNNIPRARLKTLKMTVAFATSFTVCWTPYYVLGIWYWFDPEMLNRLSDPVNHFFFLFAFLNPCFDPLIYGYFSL
Test: Ability to inhibit des-Gly10[125I]Tyr5,DLeu6,NMeLeu7, Pro9-NEt]-GnRH radioligand binding to the cloned human gonadotropin-releasing hormone receptor stably expressed in HEK293 cells
Type: cell-based

SMILES	Ki
COc1cccc(-c2c(C)n(Cc3c(F)cccc3F)c(=O)n(CC(C)NCCCOCC(C)C)c2=O)c1 (centres undefined)	0.081 µM
COc1cccc(-c2c(C)n(Cc3c(F)cccc3F)c(=O)n(C[C@@H](C)N(C)Cc3ccccc3)c2=O)c1	0.33 µM
COc1cccc(-c2c(C)n(Cc3c(F)cccc3F)c(=O)n(C[C@H]3CCCN3Cc3ccccn3)c2=O)c1	0.032 µM
COc1cccc(-c2c(C)n(Cc3c(F)cccc3F)c(=O)n(CC(C)N(C)CCCOCC(C)C)c2=O)c1 (centres undefined)	0.24 µM
COc1cccc(-c2c(C)n(Cc3c(F)cccc3F)c(=O)n(CC(C)N(C)Cc3ccccc3)c2=O)c1 (centres undefined)	0.31 µM
COc1cccc(-c2c(C)n(Cc3c(F)cccc3F)c(=O)n(C[C@H](C)N)c2=O)c1	18 µM
COc1cccc(-c2c(C)n(Cc3c(F)cccc3F)c(=O)n(C[C@H](C)NCc3ccccc3)c2=O)c1	0.14 µM
COc1cccc(-c2c(C)n(Cc3c(F)cccc3F)c(=O)n(C[C@@H](C)N)c2=O)c1	2.5 µM
COc1cccc(-c2c(C)n(Cc3c(F)cccc3F)c(=O)n(C[C@@H](C)NCc3ccccn3)c2=O)c1	0.015 µM
COc1cccc(-c2c(C)n(Cc3c(F)cccc3F)c(=O)n(C[C@@H]3CCCN3Cc3ccccn3)c2=O)c1	0.21 µM
COc1cccc(-c2c(C)n(Cc3c(F)cccc3F)c(=O)n(C[C@H](C)N(C)Cc3ccccc3)c2=O)c1	0.25 µM
COc1cccc(-c2c(C)n(Cc3c(F)cccc3F)c(=O)n(CC(C)NCc3ccccc3)c2=O)c1 (centres undefined)	0.28 µM
COc1cccc(-c2c(C)n(Cc3c(F)cccc3F)c(=O)n(C[C@@H](C)NCc3ccccc3)c2=O)c1	0.13 µM

Next, values leading:

Ki	SMILES
0.0052 µM	COc1cccc(-c2c(C)n(Cc3c(F)cccc3F)c(=O)n(C[C@@H](C)N(C)CCc3ccccn3)c2=O)c1
0.17 µM	COc1cccc(-c2c(C)n(Cc3c(F)cccc3F)c(=O)n(CC(C)NCCc3ccccn3)c2=O)c1 (centres undefined)
0.89 µM	COc1cccc(-c2c(C)n(Cc3c(F)cccc3F)c(=O)n(C[C@H](C)N(C)CCc3ccccn3)c2=O)c1
0.78 µM	COc1cccc(-c2c(C)n(Cc3c(F)cccc3F)c(=O)n(C[C@H](C)NCCc3ccccn3)c2=O)c1
0.079 µM	COc1cccc(-c2c(C)n(Cc3c(F)cccc3F)c(=O)n(C[C@@H](C)NCCc3ccccn3)c2=O)c1
0.096 µM	COc1cccc(-c2c(C)n(Cc3c(F)cccc3F)c(=O)n(CCN(C)Cc3ccccn3)c2=O)c1
0.55 µM	COc1cccc(-c2c(C)n(Cc3c(F)cccc3F)c(=O)n(CCNCc3ccccn3)c2=O)c1
0.46 µM	COc1cccc(-c2c(C)n(Cc3c(F)cccc3F)c(=O)n(C[C@H](C)NCc3ccccn3)c2=O)c1
0.053 µM	COc1cccc(-c2c(C)n(Cc3c(F)cccc3F)c(=O)n(CC(C)NCc3ccccn3)c2=O)c1 (centres undefined)
0.012 µM	COc1cccc(-c2c(C)n(Cc3c(F)cccc3F)c(=O)n(CC(C)N(C)CCc3ccccn3)c2=O)c1 (centres undefined)
